Measured values published in ChEMBL document CHEMBL1141708, “Structure-activity relationship of ortho- and meta-phenol based LFA-1 ICAM inhibitors” (Bioorg Med Chem Lett, 2008).

Columns and labels:
in vivo [1] = details: rat
in vivo [2] = details: rat, po

SMILES | half-life (in vivo [1]) | bioavailability (in vivo [2])
O=C(/C=C/c1ccc(Sc2ccccc2OC[C@H]2CC[C@@H](C(=O)O)CC2)c(C(F)(F)F)c1C(F)(F)F)N1CCOCC1 | 3.6 h | 9%
O=C(/C=C/c1ccc(Sc2cccc(O[C@H]3CC[C@@H](C(=O)O)CC3)c2)c(C(F)(F)F)c1C(F)(F)F)N1CCOCC1 | 2.6 h | 31%
